The text below walks through data of paper PMC8243409 (Journal of chemical information and modeling, 2021).

As a reminder, the IC50 is the concentration needed to halve the response being measured.

The target of this assay is E. coli dihydrofolate reductase (DHFR) (Escherichia coli, UniProt P0ABQ4). The assay can be described thus: steady-state kinetics dose response. Type of assay: biochemical.
E. coli dihydrofolate reductase (DHFR), sequence (P0ABQ4 whole entry): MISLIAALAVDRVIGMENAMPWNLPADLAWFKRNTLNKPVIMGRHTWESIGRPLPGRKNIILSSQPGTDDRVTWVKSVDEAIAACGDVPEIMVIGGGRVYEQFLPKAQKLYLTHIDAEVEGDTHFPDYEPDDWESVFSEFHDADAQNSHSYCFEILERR

In turn, `COc1cc2c(Nc3ccc(Br)cc3F)ncnc2cc1OCC1CCN(C)CC1` [NSC760766, Vandetanib] displayed an IC50 of about 39 µM.
